Data taken from patent EP2766361B1, “8-CARBAMOYL-2-(2,3-DISUBSTITUTED PYRID-6-YL)-1,2,3,4-TETRAHYDROISOQUINOLINE DERIVATIVES AS APOPTOSIS-INDUCING AGENTS FOR THE TREATMENT OF CANCER AND IMMUNE AND AUTOIMMUNE DISEASES” (priority 2011, dated 2013).

What was measured:
[1] = Single dose pharmacokinetics, oral bioavailability; assay type: in vivo, Sprague-Dawley rats; conditions: for bioavailability: rat, in vivo, po
Description: The single dose pharmacokinetics of select compounds were evaluated in Sprague-Dawley rats (Charles River) after a 5 mg/kg oral dose (n = 3) (10% DMSO in PEG-400) administered by gavage or by 5 mg/kg IV bolus dose (n = 3) (10% DMSO in PEG-400). Compound and the internal standard were separated from each other and coextracted contaminants on a 50 mm × 3 mm Keystone Betasil CN 5 µm column with an acetonitrile/0.1% trifluoroacetic acid mobile phase (50:50, by volume) at a flow rate of 0.7 mL/min. Analysis was performed on a Sciex API3000 biomolecular mass analyzer with a heated nebulizer interface. Compound and internal standard peak areas were determined using Sciex MacQuan software. The plasma drug concentration of each sample was calculated by least-squares linear regression analysis (nonweighted) of the peak area ratio (parent/internal standard) of the spiked plasma standards versus concentration. The plasma concentration data were submitted to multiexponential curve fitting using WinNonlin.3. The area under the plasma concentration-time curve was calculated using the linear trapezoidal rule for the plasma concentration-time profiles.
One way to calculate bioavailability of a drug or agent is by dividing the plasma concentration following an oral dose by the concentration following an intravenous dose.

[2] = tested on: Molt-4 human acute lymphoblastic leukemia cells; test: Molt-4 cellular assay (cell viability, MTS); assay type: cell-based; conditions: 10% human serum, 48 hours
Description: Molt-4 (ATCC, Manassas, VA) human acute lymphoblastic leukemia cells were plated 50,000 cells per well in 96-well tissue culture plates in a total volume of 100 µL tissue culture medium supplemented with 10% human serum (Invitrogen, Carlsbad, CA) and treated with a 3-fold serial dilution of the compounds of interest from 5 µM to […]. Each concentration was tested in duplicate at least 3 separate times. The number of viable cells following 48 hours of compound treatment was determined using the CellTiter 96® Aqueous non-radioactive cell proliferation MTS assay according to manufacturer's recommendations (Promega Corp., Madison, WI).

[3] = tested on: mouse FL5.12 cells transfected with Bcl-xL; test: FL5.12 cellular assay (cell viability, CellTiter-Glo); assay type: cell-based; conditions: IL-3-depleted, 3% FBS assay media, 24 hours, read-out: FL5.12 Bcl-xL, -IL3, EC50
Description: Cell viability was assayed using the CellTiter-Glo assay (Promega Corp., Madison, WI) according to the manufacturer instructions. Individual determinations were the result of duplicate values. […] Table 2. In Vitro Data

SMILES | bioavailability ([1]; 5 mg/kg) [%] | EC50 [2] [nM] | EC50 [3] [nM] | bioavailability ([1]; 1 mg/kg) [%] | F (%), dose ([1]; Rat p.o. dose, 5 mpk)
Cc1c(-c2ccc(N3CCc4cccc(C(=O)Nc5nc6ccccc6s5)c4C3)nc2C(=O)NS(=O)(=O)C2CC2)cnn1CC12CC3CC(CC(C3)C1)C2 [Example 18, N-(1,3-benzothiazol-2-yl)-2-{6-[(cyclopropylsulfonyl)carbamoyl]-5-[5-methyl-1-(tricyclo[3.3.1.1^3,7]dec-1-ylmethyl)-1H-pyrazol-4-yl]pyridin-2-yl}-1,2,3,4-tetrahydroisoquinoline-8-carboxamide] | 31 | 24 | 1 |  | 
Cc1c(-c2ccc(N3CCc4cccc(C(=O)Nc5nc6ccccc6s5)c4C3)nc2C(=O)O)cnn1CC12CC3CC(CC(C3)O1)C2 [Example 59, 6-[8-(1,3-benzothiazol-2-ylcarbamoyl)-3,4-dihydroisoquinolin-2(1H)-yl]-3-[5-methyl-1-(2-oxatricyclo[3.3.1.1^3,7]dec-1-ylmethyl)-1H-pyrazol-4-yl]pyridine-2-carboxylic acid] |  | 24 | 0.3 | 31 | 
Cc1c(-c2ccc(N3CCc4cccc(C(=O)Nc5nc6ccccc6s5)c4C3)nc2C(=O)O)cnn1CC12CC3CC(CC(C3)C1)C2 [Example 3, 6-[8-(1,3-benzothiazol-2-ylcarbamoyl)-3,4-dihydroisoquinolin-2(1H)-yl]-3-[5-methyl-1-(tricyclo[3.3.1.1^3,7]dec-1-ylmethyl)-1H-pyrazol-4-yl]pyridine-2-carboxylic acid] |  | 6 | < 1 |  | […]
